{"source": "patent US6086919A", "about": "“Pharmaceutical composition containing the ace inhibitor ramipril and a dihydropyridine compound” (priority 1994, dated 2000)", "origin": "cited, not measured here", "key": {"[1]": {"tested_on": "hypertensive patients; patients with clinical signs of congestive heart failure"}, "vasodilatory effect": {"tested_on": "vasodilatory effect", "settings": "in words"}}, "data": [{"smiles": "CCOC(=O)C1=C(C)NC(C)=C(C(=O)OC)C1c1cccc(Cl)c1Cl", "note": "(centres unmarked) [felodipine]", "values": [{"measurement": "Light stability", "setting": "when exposed to light", "result": "decomposed when exposed to light"}]}, {"smiles": "CCOC(=O)[C@H](CCc1ccccc1)N[C@@H](C)C(=O)N1[C@H](C(=O)O)C[C@@H]2CCC[C@@H]21", "note": "[ramipril]", "values": [{"measurement": "Sensitivity of the substance", "setting": "stability", "result": "sensitive to high temperature, moisture or compression"}, {"measurement": "Mortality", "setting": "[1]; clinical signs of congestive heart failure after acute myocardial infarction", "result": "reduce mortality"}, {"measurement": "Reduction of blood pressure and peripheral arterial resistance", "setting": "[1]; hypertensive patients", "result": "reduction in peripheral arterial resistance and thus a reduction of the blood pressure without a compensatory rise in heart rate"}]}, {"smiles": "CCOC(=O)C1=C(C)NC(C)=C(C(=O)OC)[C@@H]1c1cccc(Cl)c1Cl", "note": "[S form]", "values": [{"measurement": "Vasodilatory effect compared with the R form", "setting": "vasodilatory effect", "result": "stronger than the vasodilatory effect of the R form"}]}]}
